{"source": "patent US20230043407A1", "about": "“ELECTROSTATICALLY GATED NANOFLUIDIC MEMBRANES FOR CONTROL OF MOLECULAR TRANSPORT” (THE METHODIST HOSPITAL SYSTEM, priority 2020, published 2023)", "experiment": "In vitro release rate modulation across electrostatically gated nanofluidic membrane", "conditions": "active phases, gate voltage −1.5 V, vs passive phases (0 V); sink 0.01×PBS", "description": "Release modulation experiments were performed with a custom made, two reservoirs fixture comprising of a macro cuvette (sink reservoir) and a drug reservoir. The cuvette was glued with UV epoxy (OG116, Epoxy Technologies, Inc.) to a PMMA (McMaster Carr, Douglasville, Ga.) membrane holder. The drug reservoir (500 μL capacity), made of PMMA, was secured to the membrane holder through 2 SS316L M3 screws. The membrane under testing was clamped between the two PMMA pieces, with 2 O-rings (2418T113, McMaster Carr, Douglasville, Ga.) to avoid solution leakage. The reservoir was capped with a silicone plugs (9277K87, McMaster Carr, Douglasville, Ga.).\nRelease modulation experiments were performed using 300 nm membranes with both poly-Si and SiC deposition. […]\nThe assembled diffusion fixtures were then loaded in a robotic carousel^20, which is connected to a Cary 50 UV-vis spectrophotometer (Agilent Technologies). Absorbance measurements of the sink reservoir were automatically performed every 5 minutes. […]\nGraphs were plotted and statistical data analyses were performed with GraphPad Prism 8 (version 8.1.1; GraphPad Software, Inc., La Jolla, Calif.). […] Statistical significance was determined using paired t-tests. […]"}
{"substance": "Alexa Fluor 647 [AF647]", "values": [{"measurement": "reduction of release rate", "result": 60, "unit": "%"}]}
